Assay results reported in PubChem BioAssay AID248 (DTP/NCI, 2004).
“And” between values parts separate entries of the source, which are not always exact repeats. Equal entries are not always repeated. Inconclusive results and toxic doses are left out. Cut-off read from the data, not from the text of the source: active = T/C of 150% or more; inactive = T/C below 125%.

Tested on: L1210 leukemia ip in BDF1 mice, survival T/C
Assay: NCI In Vivo Anticancer Drug Screen. Data for tumor model L1210 Leukemia (intraperitoneal) in B6D2F1 (BDF1) mice
Conditions: endpoint: mean survival time, higher = longer survival
How it was run: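 Tumor cells were implanted, animals were treated, and survival was followed. The result divides the treated measurement by the vehicle-control measurement.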

[1] = dose: 100.0 mg/kg/injection, schedule: Q04DX003 (ip), vehicle: other
[2] = dose: 200.0 mg/kg/injection, schedule: Q01DX009 (ip), vehicle: Klucel (hydroxypropylcellulose) (HPC)
[3] = dose: 200.0 mg/kg/injection, schedule: Q04DX003 (ip), vehicle: other
[4] = dose: 400.0 mg/kg/injection, schedule: Q01DX009 (ip), vehicle: Klucel (hydroxypropylcellulose) (HPC)
[5] = dose: 100.0 mg/kg/injection, schedule: Q01DX001 (ip), vehicle: carboxymethylcellulose (CMC)
[6] = dose: 200.0 mg/kg/injection, schedule: Q01DX001 (ip), vehicle: carboxymethylcellulose (CMC)
[7] = dose: 400.0 mg/kg/injection, schedule: Q01DX001 (ip), vehicle: carboxymethylcellulose (CMC)
[8] = dose: 100.0 mg/kg/injection, schedule: Q01DX009 (ip), vehicle: saline with Tween-80
[9] = dose: 100.0 mg/kg/injection, schedule: Q04DX003 (ip), vehicle: saline with Tween-80
[10] = dose: 200.0 mg/kg/injection, schedule: Q01DX009 (ip), vehicle: saline with Tween-80
[11] = dose: 200.0 mg/kg/injection, schedule: Q04DX003 (ip), vehicle: saline with Tween-80
[12] = dose: 400.0 mg/kg/injection, schedule: Q01DX009 (ip), vehicle: saline with Tween-80
[13] = dose: 400.0 mg/kg/injection, schedule: Q04DX003 (ip), vehicle: saline with Tween-80
[14] = dose: 100.0 mg/kg/injection, schedule: Q01DX009 (ip), vehicle: saline
[15] = dose: 100.0 mg/kg/injection, schedule: Q04DX003 (ip), vehicle: saline
[16] = dose: 200.0 mg/kg/injection, schedule: Q01DX009 (ip), vehicle: saline
[17] = dose: 200.0 mg/kg/injection, schedule: Q04DX003 (ip), vehicle: saline
[18] = dose: 100.0 mg/kg/injection, schedule: Q04DX003 (ip), vehicle: Klucel (hydroxypropylcellulose) (HPC)
[19] = dose: 200.0 mg/kg/injection, schedule: Q04DX003 (ip), vehicle: Klucel (hydroxypropylcellulose) (HPC)
[20] = dose: 400.0 mg/kg/injection, schedule: Q04DX003 (ip), vehicle: Klucel (hydroxypropylcellulose) (HPC)

Measured: T/C

CCCC[n+]1cccc(C#N)c1
inactive: dose: 18.75 mg/kg/injection, schedule: Q01DX009 (ip), vehicle: saline 92 % of control | dose: 37.5 mg/kg/injection, schedule: Q01DX009 (ip), vehicle: saline 101 % of control | dose: 37.5 mg/kg/injection, schedule: Q04DX003 (ip), vehicle: saline 93 % of control | dose: 75.0 mg/kg/injection, schedule: Q01DX001 (ip), vehicle: saline 98 % of control | dose: 75.0 mg/kg/injection, schedule: Q01DX009 (ip), vehicle: saline 90 % of control | dose: 75.0 mg/kg/injection, schedule: Q04DX003 (ip), vehicle: saline 93 % of control | dose: 150.0 mg/kg/injection, schedule: Q01DX001 (ip), vehicle: saline 95 % of control | dose: 150.0 mg/kg/injection, schedule: Q04DX003 (ip), vehicle: saline 91 % of control

CC1(C(Cl)Cl)C=CC(=O)C=C1
inactive: dose: 100.0 mg/kg/injection, schedule: Q01DX009 (ip), vehicle: Klucel (hydroxypropylcellulose) (HPC) 90 % of control | [1] 103 % of control | [2] 87 % of control | [3] 111 % of control | [4] 106 % of control | dose: 400.0 mg/kg/injection, schedule: Q04DX003 (ip), vehicle: other 95 % of control

CC(C)(C)c1ccc(O)c([N+](=O)[O-])c1
inactive: dose: 25.0 mg/kg/injection, schedule: Q04DX002 (ip), vehicle: Klucel (hydroxypropylcellulose) (HPC) 86 % of control | dose: 50.0 mg/kg/injection, schedule: Q04DX002 (ip), vehicle: Klucel (hydroxypropylcellulose) (HPC) 86 % of control | dose: 100.0 mg/kg/injection, schedule: Q04DX002 (ip), vehicle: Klucel (hydroxypropylcellulose) (HPC) 102 % of control and 88 % of control

CCCOc1ccc(C(=O)C(=O)c2ccccc2)cc1
inactive: [5] 97 % of control | [6] 100 % of control | [7] 97 % of control

C/C=C/CCCCCCCC(=O)OCCCC
inactive: [8] 101 % of control | [9] 103 % of control | [10] 107 % of control | [11] 97 % of control | [12] 95 % of control | [13] 98 % of control

NC(N)=Nc1ccc(Sc2ccc(N=C(N)N)cc2)cc1
inactive: dose: 75.0 mg/kg/injection, schedule: Q01DX001 (ip), vehicle: carboxymethylcellulose (CMC) 101 % of control | dose: 150.0 mg/kg/injection, schedule: Q01DX001 (ip), vehicle: carboxymethylcellulose (CMC) 98 % of control | dose: 300.0 mg/kg/injection, schedule: Q01DX001 (ip), vehicle: carboxymethylcellulose (CMC) 98 % of control

NC(=O)CCCCc1ccccc1
inactive: dose: 50.0 mg/kg/injection, schedule: Q01DX001 (ip), vehicle: saline with Tween-80 93 % of control | dose: 100.0 mg/kg/injection, schedule: Q01DX001 (ip), vehicle: saline with Tween-80 98 % of control | dose: 200.0 mg/kg/injection, schedule: Q01DX001 (ip), vehicle: saline with Tween-80 90 % of control

O=c1[nH]cnc2nc(-c3cccc([N+](=O)[O-])c3)[nH]c12
inactive: dose: 100.0 mg/kg/injection, schedule: Q04DX003 (ip), vehicle: gum acacia 102 % of control | dose: 200.0 mg/kg/injection, schedule: Q04DX003 (ip), vehicle: gum acacia 92 % of control | dose: 400.0 mg/kg/injection, schedule: Q04DX003 (ip), vehicle: gum acacia 96 % of control

CCCOP(OCCC)OCCC
inactive: dose: 50.0 mg/kg/injection, schedule: Q01DX009 (ip), vehicle: saline 93 % of control | [14] 101 % of control | [15] 103 % of control | [16] 98 % of control | [17] 95 % of control

CN1CCC(OC(=O)C2CC(=O)NC(=O)C2)CC1
inactive: [18] 107 % of control | [19] 102 % of control | [20] 94 % of control

Nc1ccnc(=S)[nH]1
inactive: dose: 100.0 mg/kg/injection, schedule: Q01DX001 (ip), vehicle: Klucel (hydroxypropylcellulose) (HPC) 92 % of control | dose: 200.0 mg/kg/injection, schedule: Q01DX001 (ip), vehicle: Klucel (hydroxypropylcellulose) (HPC) 97 % of control | dose: 250.0 mg/kg/injection, schedule: Q01DX Z (ip), vehicle: methylcellulose (MC) 101 % of control | dose: 400.0 mg/kg/injection, schedule: Q01DX001 (ip), vehicle: Klucel (hydroxypropylcellulose) (HPC) 94 % of control

Fc1cc(N(CCCl)CCCl)ccc1CN1CCCN(Cc2ccc(N(CCCl)CCCl)cc2F)C1c1ccc(N(CCCl)CCCl)cc1F
inactive: dose: 50.0 mg/kg/injection, schedule: Q01DX001 (ip), vehicle: carboxymethylcellulose (CMC) 100 % of control | [5] 96 % of control | [6] 102 % of control | [7] 94 % of control

COc1ccc(NC(=O)Oc2ccc(-c3ccccc3)cc2Br)cc1
inactive: [18] 96 % of control | [19] 96 % of control | [20] 92 % of control

CCCCSc1ncnc2c1ncn2C1CCCCO1 (stereo unspecified)
inactive: dose: 50.0 mg/kg/injection, schedule: Q01DX001 (ip), vehicle: saline 102 % of control | dose: 100.0 mg/kg/injection, schedule: Q01DX001 (ip), vehicle: saline 104 % of control | dose: 100.0 mg/kg/injection, schedule: Q01DX009 (ip), vehicle: saline sonified 94 % of control | [18] 103 % of control | dose: 200.0 mg/kg/injection, schedule: Q01DX001 (ip), vehicle: saline 102 % of control | dose: 200.0 mg/kg/injection, schedule: Q01DX009 (ip), vehicle: saline sonified 90 % of control | [19] 113 % of control | dose: 400.0 mg/kg/injection, schedule: Q01DX001 (ip), vehicle: saline 113 % of control | dose: 400.0 mg/kg/injection, schedule: Q01DX009 (ip), vehicle: saline sonified 113 % of control | [20] 124 % of control

Cc1cccc2c1OC(=O)CCC21CCCCC1=O (stereo unspecified)
inactive: [8] 101 % of control | [10] 98 % of control | [12] 97 % of control

CCOC(=O)c1c[nH]c2ccc(OC)cc2c1=O
inactive: [14] 96 % of control | [15] 98 % of control | [16] 98 % of control | [17] 102 % of control | dose: 400.0 mg/kg/injection, schedule: Q01DX009 (ip), vehicle: saline 96 % of control | dose: 400.0 mg/kg/injection, schedule: Q04DX003 (ip), vehicle: saline 100 % of control

CCOC(=O)NCCc1ccc(OC)c(OC)c1
inactive: [8] 92 % of control | [9] 97 % of control | [10] 91 % of control | [11] 112 % of control | [12] 96 % of control | [13] 102 % of control

Cc1cnc2c(N)[nH]nc2n1
inactive: [18] 106 % of control | [2] 104 % of control | [19] 96 % of control | [4] 100 % of control | [20] 102 % of control

NC(Cc1c[nH]c2ccc(F)cc12)C(=O)O (stereo unspecified)
inactive: dose: 100.0 mg/kg/injection, schedule: Q01DX001 (ip), vehicle: other 95 % of control | [1] 119 % of control | dose: 200.0 mg/kg/injection, schedule: Q01DX001 (ip), vehicle: other 95 % of control | [3] 102 % of control | dose: 400.0 mg/kg/injection, schedule: Q01DX001 (ip), vehicle: other 89 % of control

NC(N)=N/N=C(\c1ccc(Br)cc1)C1CC1
inactive: dose: 15.0 mg/kg/injection, schedule: Q01DX Z (ip), vehicle: carboxymethylcellulose (CMC) 96 % of control | dose: 30.0 mg/kg/injection, schedule: Q01DX Z (ip), vehicle: carboxymethylcellulose (CMC) 95 % of control | dose: 30.0 mg/kg/injection, schedule: Q01DX Z (oral), vehicle: carboxymethylcellulose (CMC) 100 % of control | dose: 60.0 mg/kg/injection, schedule: Q01DX Z (ip), vehicle: carboxymethylcellulose (CMC) 96 % of control | dose: 60.0 mg/kg/injection, schedule: Q01DX Z (oral), vehicle: carboxymethylcellulose (CMC) 115 % of control | dose: 120.0 mg/kg/injection, schedule: Q01DX Z (oral), vehicle: carboxymethylcellulose (CMC) 107 % of control and 121 % of control | dose: 240.0 mg/kg/injection, schedule: Q01DX Z (oral), vehicle: carboxymethylcellulose (CMC) 102 % of control and 111 % of control
